Measurements taken from patent US20120295915A1, “AZABENZIMIDAZOLES AS FATTY ACID SYNTHASE INHIBITORS” (priority 2009, published 2012).

Target: FAS (Homo sapiens, UniProt P49327)
Experiment: FAS assay (Assay #1 residual NADPH detection or Assay #2 CoA detection with CPM dye)
Type: biochemical
Conditions: in at least one experimental run; tested generally according to the assays described (assay #1 or #2 not specified)
Procedure: FAS assay FAS activity was measured through one of the two following assays.
Inhibition of FAS activity can be measured based on the detection of residual NADPH substrate after the FAS assay is quenched. This assay is run as a 10 μL endpoint assay in 384-well format, where the reaction contains 20 μM malonyl-CoA, 2 μM acetyl-CoA, 30 μM NADPH and 40 nM FAS in 50 mM sodium phosphate, pH 7.0. The assay is run by sequentially dispensing 5 μl of a malonyl-CoA solution, then enzyme solution (containing the acetyl-CoA, and NADPH) into a black, low volume assay plate (Greiner 784076) pre-dispensed with […] compound solutions in DMSO. The reaction is incubated at ambient temperature for 60 minutes, then quenched with 5 μL of a developing solution composed of 90 μM resazurin, 0.3 IU/ml diaphorase in 50 mM sodium phosphate, pH 7.0. The developed reaction is read on a Molecular Devices Analyst or Acquest (or equivalent) plate reader using a 530 nm excitation wavelength filter, a 580 nm emission filter, and 561 nm dichroic filter. The test compounds are prepared in neat DMSO at a concentration of 10 mM. For inhibition curves, compounds are diluted using a three fold serial dilution and tested at 11 concentrations (e.g. 25 μM-0.42 nM). Curves are analysed using Activityl)ase and XLfit, and results are expressed as pIC50 values.
Inhibition of FAS can also be quantified based on the detection of the CoA products with a thio-reactive coumarin dye. This assay is run as a 10 μL endpoint assay in 384-well format, where the reaction contains 20 μM malonyl-CoA, 20 μM acetyl-CoA, 40 μM NADPH and 2 nM FAS in 50 mM sodium phosphate, pH 7.0, and 0.04% Tween-20. The assay is run by adding 5 μL enzyme solution to a black, low volume assay plate (Greiner 784076) pre-dispensed with 100 nl compound solutions in DMSO. After 30 minutes, 5 μL substrate is added, and the reaction incubated at ambient temperature for an additional 60 minutes. The reaction is then quenched with 10 μL of 6M guanidine-HCl containing 50 μM CPM (7-diethylamino-3-(4′-maleimidylphenyl)-4-methylcoumarin (CPM; thio-reactive dye), and incubated for 30 minutes. The plate is read on an Envision (PerkinElmer) or equivalent plate reader using a 380 nm excitation wavelength filter, and a 486 nm emission filter. Data fitting and compound preparations are done as described above.

FAS, sequence (P49327 whole entry): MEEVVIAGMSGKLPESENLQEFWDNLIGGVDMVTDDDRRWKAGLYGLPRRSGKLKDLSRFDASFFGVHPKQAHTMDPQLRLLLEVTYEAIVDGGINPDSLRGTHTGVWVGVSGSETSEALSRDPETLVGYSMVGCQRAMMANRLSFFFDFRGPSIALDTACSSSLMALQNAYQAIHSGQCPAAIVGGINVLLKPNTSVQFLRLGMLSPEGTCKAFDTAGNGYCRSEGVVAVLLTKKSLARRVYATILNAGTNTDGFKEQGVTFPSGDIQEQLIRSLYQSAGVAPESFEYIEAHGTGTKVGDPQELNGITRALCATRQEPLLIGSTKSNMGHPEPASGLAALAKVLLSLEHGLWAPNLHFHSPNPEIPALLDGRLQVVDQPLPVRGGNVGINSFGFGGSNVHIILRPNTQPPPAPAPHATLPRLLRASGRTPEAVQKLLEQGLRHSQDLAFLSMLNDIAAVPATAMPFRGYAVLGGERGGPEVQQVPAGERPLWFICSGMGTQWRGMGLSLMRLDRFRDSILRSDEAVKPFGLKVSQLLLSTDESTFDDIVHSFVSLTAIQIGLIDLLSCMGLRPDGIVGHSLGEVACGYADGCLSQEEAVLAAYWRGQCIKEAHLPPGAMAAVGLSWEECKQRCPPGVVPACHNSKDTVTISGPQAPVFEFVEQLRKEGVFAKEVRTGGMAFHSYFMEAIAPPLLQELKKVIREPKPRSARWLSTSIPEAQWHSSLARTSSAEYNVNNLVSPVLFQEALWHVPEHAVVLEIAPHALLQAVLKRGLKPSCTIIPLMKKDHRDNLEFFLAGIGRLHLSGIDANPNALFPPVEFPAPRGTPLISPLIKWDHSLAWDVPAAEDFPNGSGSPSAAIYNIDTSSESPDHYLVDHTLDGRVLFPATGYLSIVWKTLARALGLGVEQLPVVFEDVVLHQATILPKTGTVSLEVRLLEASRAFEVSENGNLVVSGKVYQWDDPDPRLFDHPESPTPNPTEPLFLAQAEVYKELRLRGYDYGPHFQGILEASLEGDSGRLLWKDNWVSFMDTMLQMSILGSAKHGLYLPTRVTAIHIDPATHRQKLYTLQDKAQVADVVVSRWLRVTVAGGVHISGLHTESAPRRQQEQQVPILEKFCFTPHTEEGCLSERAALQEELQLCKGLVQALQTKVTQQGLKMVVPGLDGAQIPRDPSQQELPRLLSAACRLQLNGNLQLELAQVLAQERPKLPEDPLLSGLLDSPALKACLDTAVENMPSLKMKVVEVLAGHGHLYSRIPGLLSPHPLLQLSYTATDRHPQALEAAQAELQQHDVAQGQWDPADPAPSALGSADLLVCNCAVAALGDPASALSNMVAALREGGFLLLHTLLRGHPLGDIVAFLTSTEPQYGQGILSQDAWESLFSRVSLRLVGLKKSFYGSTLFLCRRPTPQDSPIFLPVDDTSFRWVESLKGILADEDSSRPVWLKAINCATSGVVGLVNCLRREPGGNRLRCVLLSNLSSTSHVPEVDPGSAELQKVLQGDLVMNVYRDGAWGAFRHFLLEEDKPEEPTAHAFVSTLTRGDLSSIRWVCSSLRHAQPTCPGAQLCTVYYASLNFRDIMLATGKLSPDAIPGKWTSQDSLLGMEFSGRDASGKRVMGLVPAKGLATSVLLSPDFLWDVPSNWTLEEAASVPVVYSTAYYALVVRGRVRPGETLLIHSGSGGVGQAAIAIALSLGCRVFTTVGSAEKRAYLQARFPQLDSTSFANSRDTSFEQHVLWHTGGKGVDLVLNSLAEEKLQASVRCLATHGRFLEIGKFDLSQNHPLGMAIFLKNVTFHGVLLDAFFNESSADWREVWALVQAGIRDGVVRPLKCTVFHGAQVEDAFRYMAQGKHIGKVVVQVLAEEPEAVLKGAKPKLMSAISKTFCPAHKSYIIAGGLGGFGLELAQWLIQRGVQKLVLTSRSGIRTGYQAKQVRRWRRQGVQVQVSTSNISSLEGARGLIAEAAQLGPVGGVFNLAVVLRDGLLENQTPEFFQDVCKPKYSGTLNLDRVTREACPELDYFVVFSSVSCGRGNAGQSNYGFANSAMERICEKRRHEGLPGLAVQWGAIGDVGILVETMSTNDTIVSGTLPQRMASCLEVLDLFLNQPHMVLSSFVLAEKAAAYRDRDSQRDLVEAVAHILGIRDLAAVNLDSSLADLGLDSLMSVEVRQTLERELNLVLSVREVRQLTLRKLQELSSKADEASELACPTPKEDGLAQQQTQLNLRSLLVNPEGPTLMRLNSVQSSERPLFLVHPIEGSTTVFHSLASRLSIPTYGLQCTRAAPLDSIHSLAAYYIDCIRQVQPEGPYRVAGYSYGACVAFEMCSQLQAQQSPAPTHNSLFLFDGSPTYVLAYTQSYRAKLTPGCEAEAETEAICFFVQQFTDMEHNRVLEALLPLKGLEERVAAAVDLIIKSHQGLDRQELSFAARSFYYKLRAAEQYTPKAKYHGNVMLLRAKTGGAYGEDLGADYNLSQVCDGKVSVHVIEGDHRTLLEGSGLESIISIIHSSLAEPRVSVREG

Compound	IC50 [nM]
O=C(C1CC1)N1CC[C@@H](Cn2c(-c3ccc(-c4cccc5[nH]ccc45)cc3)nc3cnccc32)C1 [Example 55, 1-{[(3S)-1-(cyclopropylcarbonyl)-3-pyrrolidinyl]methyl}-2-[4-(1H-indol-4-yl)phenyl]-1H-imidazo[4,5-c]pyridine]	13
O=C(C1CC1)N1CC[C@@H](Cn2c(-c3ccc(-c4ccc5cc[nH]c5c4)cc3)nc3cccnc32)C1 [Example 35, 3-{[(3S)-1-(cyclopropylcarbonyl)-3-pyrrolidinyl]methyl}-2-[4-(1H-indol-6-yl)phenyl]-3H-imidazo[4,5-b]pyridine]	9
O=C(C1CC1)N1CC[C@@H](Cn2c(-c3ccc(-c4ccc5scnc5c4)cc3)nc3cnccc32)C1 [Example 58, 2-[4-(1,3-benzothiazol-5-yl)phenyl]-1-{[(3S)-1-(cyclopropylcarbonyl)-3-pyrrolidinyl]methyl}-1H-imidazo[4,5-c]pyridine]	10
O=C(C1CC1)N1CC[C@@H](Cn2c(-c3ccc(-c4ccc5[nH]ccc5c4)cc3)nc3cnccc32)C1 [Example 25, 1-{[(3S)-1-(cyclopropylcarbonyl)-3-pyrrolidinyl]methyl}-2-[4-(1H-indol-5-yl)phenyl]-1H-imidazo[4,5-c]pyridine]	19
O=C(C1CC1)N1CC[C@@H](Cn2c(-c3ccc(-c4cnc5[nH]ccc5c4)cc3)nc3cnccc32)C1 [Example 54, 1-{[(3S)-1-(cyclopropylcarbonyl)-3-pyrrolidinyl]methyl}-2-[4-(1H-pyrrolo[2,3-b]pyridin-5-yl)phenyl]-1H-imidazo[4,5-c]pyridine]	142
Cc1cccc(-c2ccc(-c3nc4ncccc4n3C[C@@H]3CCN(C(=O)C4CC4)C3)cc2)c1 [Example 2, 1-{[(3S)-1-(cyclopropylcarbonyl)-3-pyrrolidinyl]methyl}-2-(3′-methyl-4-biphenylyl)-1H-imidazo[4,5-b]pyridine]	63
O=C(C1CC1)N1CC[C@@H](Cn2c(-c3ccc(-c4ccc5occc5c4)cc3)nc3cnccc32)C1 [Example 22, 2-[4-(1-benzofuran-5-yl)phenyl]-1-{[(3S)-1-(cyclopropylcarbonyl)-3-pyrrolidinyl]methyl}-1H-imidazol[4,5-c]pyridine]	60
O=C(C1CC1)N1CC[C@@H](Cn2c(-c3ccc(-c4ccccc4)cc3)nc3c(Cl)ncnc32)C1 [Example 46, 8-(4-biphenylyl)-6-chloro-9-{[(3S)-1-(cyclopropylcarbonyl)-3-pyrrolidinyl]methyl}-9H-purine]	129
COc1ccc(-c2ccc(-c3nc4cccnc4n3C[C@@H]3CCN(C(=O)C4CC4)C3)cc2)cc1 [Example 27, 3-{[(3S)-1-(cyclopropylcarbonyl)-3-pyrrolidinyl]methyl}-2-[4′-(methyloxy)-4-biphenylyl]-3H-imidazo[4,5-b]pyridine]	45
CN(C)C(=O)N1CC[C@@H](Cn2c(-c3ccc(-c4ccccc4)cc3)nc3cnccc32)C1 [Example 19, (3S)-3-{[2-(4-biphenylyl)-1H-imidazo[4,5-c]pyridin-1-yl]methyl}-N,N-dimethyl-1-pyrrolidinecarboxamide]	1060
